The numbers were not newly measured in patent US20150223465A1, “COMPOSITION CONTAINING 3-CYCLOPROPYL-1-ENYL-PROPANOIC ACID SALTS AND A CARRIER” (Yissum Research Development Company of the Hebrew …, priority 2012, published 2015), which cites them from elsewhere.

In data set [1] the test system is cut mini carnation flowers. The following applies: cited from earlier work; for inhibition of the action of ethylene: applied as aqueous solutions to cut mini carnation flowers; for activity as plant ethylene antagonist: in a vapor phase.
For another data set, the system named is cut flowers. The following applies: cited from earlier work.

Take `CC1=CC1C(=O)O` (stereo not drawn) [2-methylcycloprop-2-ene-1-carboxylic acid]: in data set [1], the “inhibition of the action of ethylene” value is on record as “did not inhibit” and the “activity as plant ethylene antagonist” value is “active”.

On to `O=C(O)CCC1=CC1` [3-cycloprop-1-en-1-ylpropanoic acid], for which, in data set [1], the “inhibition of the action of ethylene” value is “did not inhibit” and the “activity as plant ethylene antagonist” value is “active”.

As for `O=C([O-])O.[Na+]` [NaHCO3, sodium bicarbonate], the “effect on fresh weight of cut flowers during vase life” value in the data set on cut flowers (about 1.5 mM NaHCO3 combined with CuSO4) is given as “positively affected”. Also, the “effect on hydraulic stem resistance or transpiration rate” value with cut flowers (in vase water of cut flowers) was “no effect”.

For `O=C(O)C1C=C1` [cycloprop-2-ene-1-carboxylic acid], in data set [1], the “inhibition of the action of ethylene” value is given as “did not inhibit” and the “activity as plant ethylene antagonist” value is “active”.

As to `CC(C)N.O=C(O)CCC1=CC1` [propan-2-aminium 3-cycloprop-1-en-1-ylpropanoate], the “inhibition of the action of ethylene” value in data set [1] is reported as “some ethylene sensitivity but the test results were variable”.
